Laboratory results from patent publication US12251366B1, “Sulforaphane-cysteine for wound healing in diabetic subjects” (KUWAIT UNIVERSITY, priority 2024, dated 2025).
“Also recorded” adds a separate entry of the source.

Assays:
[1] = test system: TNF-α; assay: Cytokine ELISA, LPS-stimulated peritoneal macrophages (TNF-α); type: cell-based, mouse
Source text: (§1) This was exemplified in the current study by the ability of SFN-CYS to inhibit lipopolysaccharide (LPS)-induced peritoneal macrophages and bone marrow-derived macrophages to produce tumor necrosis factor-α (TNF-α) and interlukin-6 (IL-6). TNF-α and IL-6 are two of the major inflammatory mediators that contribute to the pathogenesis of low-grade inflammation; a phenomenon which is commonly associated with the diabetic state. […] Pre-treatment with SFN-Cys inhibited the expression of LPS-induced TNF-α and IL-6 protein at a therapeutic dose of 1.5 μM (FIGS. 1A and 1B).
(§2) Thioglycollate-elicited mouse peritoneal macrophages were prepared from C57BL (8-10 weeks old) and cultured in RPMI 1640 with 10% (v/v) FCS Bone marrow-derived macrophages were generated in RPMI medium containing M-CSF (10 ng/mL) according to previously published procedure. For cytokine ELISA assay, cells were seeded at 5×10^5 in 12-well plates, whereas for mRNA expression, the cells were seeded at […]. LPS and used at a dose of 100 ng/mL. Similarly. SFN-Cys was used at a concentration of 1.5 umol/L.
(§3) For cytokine ELISA, supernatants from cultured macrophages were collected in response to treatment with SFN and SFN-Cys for 6 h. The total TNF-α and TL-6 were measured by enzyme-linked immunosorbent assay (ELISA) using kits (R&D system, USA) according to the manufacturer's protocols.

[2] = test system: IL-6; assay: Cytokine ELISA, LPS-stimulated peritoneal macrophages (IL-6); type: cell-based, mouse; settings: LPS 100 ng/mL 6 hours, pre-treatment 1.5 μM
Source text: as §1, §2, §3

[3] = test system: bone marrow-derived macrophages; assay: LPS-induced cytokines in bone marrow-derived macrophages; type: cell-based, mouse
Method: as §2, with “Additional tests were conducted to determine whether SFN-Cys also suppresses TNF-α and IL-6 expression at the mRNA level. […] Thioglycollate-elicited” for “Thioglycollate-elicited”

[4] = test system: wound fibroblasts (DF, CF-GP); assay: Cell viability assay, H2O2 cytotoxicity in wound fibroblasts; type: cell-based, rat; settings: 1.5 to 5 μM
Method: To determine if SFN-Cys is involved in cellular detoxification of oxidant load, wound fibroblasts derived from the granulation tissue of control and diabetic animals with H2O2 were measured for their abilities to survive acute oxidative stress in the presence or absence of SFN-Cys. […] Moreover, CF exposed for 72 hours to high glucose (25 mmole/L and palmitate 200 μmole/L, CF-GP) to mimic the diabetic state produced analogous results to those seen with DF as illustrated in FIG. 2A. Supplementing DF and CF-GP with SFN-Cys at a dose of 1.5 to 5 μM eliminated the reactive oxygen species difference between these cells and enhanced DF and CF-GP resistance to H2O2(FIG. 2A).
Control and diabetic fibroblasts were isolated from wounds inflicted on control Wistar rats (CF) or Goto kakazaki rats (GK), a model of non-obese type 2 diabetes. All information regarding the GK rats and the preparation and culturing of control (CF) and diabetic (DF) fibroblasts was described in detailed in previous publications, Bitar, M S, and Mulla, F. Am J Phyaiol. […]
The response of CF and DF to H2O2 cytotoxicity was measured by seeding the cells into 96-well plates at a density of 5×10^3 to 8×10^3 cells per well and were allowed to adhere overnight in 10% FCS-DMEM medium. […] Cell viability was measured using WST-1 (Dojindo, USA;) according to the manufacturer's instructions.

[5] = Blood tests on plasma after 21 days of SFN-Cys diet; type: in vivo; settings: mice, diet 7.5 mg/kg food, mean±SEM
Method: To strengthen this conclusion, extensive measurements were conducted on plasma levels of key parameters of kidney and liver toxicities in addition to the lipid and carbohydrate profiles.
For dietary treatment with SFN-Cys, the SFN-Cys was mixed with a powdered diet (7.5 mg of SFN-Cys per kg of food). The estimated dose delivered by this diet was about 1.0-1.5 mg/kg. The diet was stored at 4° C. and the feeders were refilled daily. Control animals received diet alone. Body weights were recorded twice a week and at the termination of the study, blood was drawn in EDTA-containing tubes, plasma was collected by centrifugation and stored at −80° C. until analysis.
Blood tests were performed on hemolysis free plasma samples obtained from animals receiving 21 days of a normal diet or a diet containing 7.5 mg/kg food of SFN-Cys using commercially available kits.

[6] = test system: transforming growth factor beta (TGF-β); assay: TGF-β expression (cardiac fibrosis); type: in vivo
Source text: Therapeutic rational was considered for SFN-Cys effectiveness in the following pathological conditions: Sarcopenia-SFN-Cys increased muscle weight in diabetic mice, see FIGS. 4A and 4B; Cardiac fibrosis-SFN-Cys inhibits transforming growth factor beta (TGF-β) expression, see FIG. 4C; Erectile dysfunction-SFN-Cys increased endothelial nitric oxide activity and expression in corpus cavernosum.

C[S+]([O-])CCCCNC(=S)SCC(N)C(=O)O (centres unmarked) [SFN-Cys, Sulforaphane-Cysteine]
anti-inflammatory activity (overall, SFN-Cys compared with SFN) ([1]; LPS-stimulated macrophages, mouse model of type 2 diabetes): exhibited anti-inflammatory and antioxidant activities; also recorded: more potent than SFN | expression of LPS-induced TNF-α protein ([1]; peritoneal macrophages, LPS 100 ng/mL 6 hours, pre-treatment 1.5 μM, ELISA): inhibited | expression of LPS-induced IL-6 protein [2]: inhibited | suppression of LPS-induced TNF-α and IL-6 in bone marrow-derived macrophages [3]: analogous results were also seen | reactive oxygen species difference between DF/CF-GP and control fibroblasts [4]: eliminated | resistance to H2O2 (cell viability) ([4]; DF and CF-GP, H2O2 400 μmol/L 4 hours, WST-1): enhanced | Plasma Alanine aminotransferase [5]: 44.5 ± 17 IU/L | Plasma Alkaline phosphatase [5]: 27 ± 15 IU/L | Plasma Aspartate aminotransferase [5]: 172 ± 25 IU/L | Plasma Creatinine [5]: 8.87 ± 0.91 µmol/L | Plasma Free fatty acid [5]: 0.41 ± 0.14 mmol/L | Plasma Glucose [5]: 5.87 ± 0.90 mmol/L | Plasma Ketone bodies [5]: 0.079 ± 0.01 mmol/L | Plasma Total bilirubin [5]: 4.23 ± 0.48 µmol/L | Plasma Total cholesterol [5]: 2.15 ± 0.42 mmol/L | Plasma Triglyceride [5]: 1.15 ± 0.25 mmol/L | TGF-β expression [6]: inhibits
